Literature values, collected in publication PMC3971013 (Journal of natural products, 2013).
Like-named read-outs stand apart in the source and are kept apart here. Non-standard residues stand in square brackets, D forms with d. Residues, ends and D or L forms follow the SMILES beside them. *: point of attachment. Octanoyl(2R-Me,7,8-dehydro) = C=CCCCC[C@@H](C)C(=O)*; Oct7ynoyl(2R-Me) = C#CCCCC[C@@H](C)C(=O)*; NMeF = CN[C@@H](Cc1ccccc1)C(=O)O; X4 = CC(=O)CCCC[C@@H](C)C(=O)*; Oct(7)enoyl = C=CCCCCCC(=O)*; Oct(7)ynoyl = C#CCCCCCC(=O)*; NMeV = CN[C@H](C(=O)O)C(C)C; Hept6ynoyl = C#CCCCCC(=O)*; NMeA = CN[C@@H](C)C(=O)O; X3 = C=CCCCCC(=O)*

Test system: Vero Cells
[1] = previously reported LD50 values

**Q.** For `CC(=O)CCCC[C@@H](C)C(=O)N(C)[C@H](C(=O)N(C)[C@H](C(=O)N[C@H](C(=O)N(C)[C@@H](C)C(=O)N(C)[C@@H](Cc1ccccc1)C(N)=O)C(C)C)C(C)C)C(C)C` [Almiramide A (7), Almiramide A] (X4-[NMeV][NMeV]V[NMeA][NMeF]-NH2), which “LD50 Vero Cells” value [1] is on record?
**A.** 113.1 µM

**Q.** For `C#CCCCC[C@@H](C)C(=O)N(C)[C@H](C(=O)N(C)[C@H](C(=O)N[C@H](C(=O)N(C)[C@@H](C)C(=O)N(C)[C@@H](Cc1ccccc1)C(N)=O)C(C)C)C(C)C)C(C)C` [Almiramide B (8), Almiramide B] ({Oct7ynoyl(2R-Me)}-[NMeV][NMeV]V[NMeA][NMeF]-NH2), which “LD50 Vero Cells” value [1] is on record?
**A.** 52.3 µM

**Q.** With `C=CCCCC[C@@H](C)C(=O)N(C)[C@H](C(=O)N(C)[C@H](C(=O)N[C@H](C(=O)N(C)[C@@H](C)C(=O)N(C)[C@@H](Cc1ccccc1)C(N)=O)C(C)C)C(C)C)C(C)C` [Almiramide C (9), Almiramide C] ({Octanoyl(2R-Me,7,8-dehydro)}-[NMeV][NMeV]V[NMeA][NMeF]-NH2) as the compound, how does the “LD50 Vero Cells” value read?
**A.** 33.1 µM

**Q.** Which “LD50 Vero Cells” value does the source give for `C#CCCCCC(=O)N(C)[C@H](C(=O)N(C)[C@H](C(=O)N(C)[C@H](C(=O)N(C)[C@@H](C)C(=O)N(C)[C@@H](Cc1ccccc1)C(=O)N(C)C)C(C)C)C(C)C)C(C)C` [Compound 10] (Hept6ynoyl-[NMeV][NMeV][NMeV][NMeA][NMeF]-NMe2) here?
**A.** 155.7 µM

**Q.** With `C=CCCCCC(=O)N(C)[C@H](C(=O)N(C)[C@H](C(=O)N(C)[C@H](C(=O)N(C)[C@@H](C)C(=O)N(C)[C@@H](Cc1ccccc1)C(=O)N(C)C)C(C)C)C(C)C)C(C)C` [Compound 11] (X3-[NMeV][NMeV][NMeV][NMeA][NMeF]-NMe2) as the compound, how does the “LD50 Vero Cells” value read?
**A.** 93.1 µM

**Q.** Which “LD50 Vero Cells” value [1] does the source give for `C#CCCCCCC(=O)N(C)[C@H](C(=O)N(C)[C@H](C(=O)N(C)[C@H](C(=O)N(C)[C@@H](C)C(=O)N(C)[C@@H](Cc1ccccc1)C(=O)N(C)C)C(C)C)C(C)C)C(C)C` [Compound 12] ({Oct(7)ynoyl}-[NMeV][NMeV][NMeV][NMeA][NMeF]-NMe2) here?
**A.** 159.4 µM

**Q.** With `C=CCCCCCC(=O)N(C)[C@H](C(=O)N(C)[C@H](C(=O)N(C)[C@H](C(=O)N(C)[C@@H](C)C(=O)N(C)[C@@H](Cc1ccccc1)C(=O)N(C)C)C(C)C)C(C)C)C(C)C` [Compound 13] ({Oct(7)enoyl}-[NMeV][NMeV][NMeV][NMeA][NMeF]-NMe2) as the compound, how does the “LD50 Vero Cells” value read?
**A.** 23.8 µM

**Q.** For `C#CCCCCC(=O)N(C)[C@H](C(=O)N(C)[C@H](C(=O)N(C)[C@H](C(=O)N(C)[C@@H](C)C(=O)N(C)[C@@H](Cc1ccccc1)C(=O)O)C(C)C)C(C)C)C(C)C` [Compound 14] (Hept6ynoyl-[NMeV][NMeV][NMeV][NMeA][NMeF]-OH), which “LD50 Vero Cells” value [1] is on record?
**A.** 281.1 µM

**Q.** Which “LD50 Vero Cells” value does the source give for `C=CCCCCC(=O)N(C)[C@H](C(=O)N(C)[C@H](C(=O)N(C)[C@H](C(=O)N(C)[C@@H](C)C(=O)N(C)[C@@H](Cc1ccccc1)C(=O)O)C(C)C)C(C)C)C(C)C` [Compound 15] (X3-[NMeV][NMeV][NMeV][NMeA][NMeF]-OH) here?
**A.** >70.0 µM

**Q.** Which “LD50 Vero Cells” value [1] does the source give for `C#CCCCCCC(=O)N(C)[C@H](C(=O)N(C)[C@H](C(=O)N(C)[C@H](C(=O)N(C)[C@@H](C)C(=O)N(C)[C@@H](Cc1ccccc1)C(=O)O)C(C)C)C(C)C)C(C)C` [Compound 16] ({Oct(7)ynoyl}-[NMeV][NMeV][NMeV][NMeA][NMeF]-OH) here?
**A.** >68.9 µM

**Q.** With `C=CCCCCCC(=O)N(C)[C@H](C(=O)N(C)[C@H](C(=O)N(C)[C@H](C(=O)N(C)[C@@H](C)C(=O)N(C)[C@@H](Cc1ccccc1)C(=O)O)C(C)C)C(C)C)C(C)C` [Compound 17] ({Oct(7)enoyl}-[NMeV][NMeV][NMeV][NMeA][NMeF]-OH) as the compound, how does the “LD50 Vero Cells” value read?
**A.** 192.4 µM

**Q.** With `C#CCCCCC(=O)N(C)[C@H](C(=O)N(C)[C@H](C(=O)N(C)[C@H](C(=O)N(C)[C@@H](C)C(=O)N(C)[C@@H](Cc1ccccc1)C(=O)OC)C(C)C)C(C)C)C(C)C` [Compound 18] (Hept6ynoyl-[NMeV][NMeV][NMeV][NMeA][NMeF]-OMe) as the compound, how does the “LD50 Vero Cells” value [1] read?
**A.** 41.4 µM

**Q.** For `C=CCCCCC(=O)N(C)[C@H](C(=O)N(C)[C@H](C(=O)N(C)[C@H](C(=O)N(C)[C@@H](C)C(=O)N(C)[C@@H](Cc1ccccc1)C(=O)OC)C(C)C)C(C)C)C(C)C` [Compound 19] (X3-[NMeV][NMeV][NMeV][NMeA][NMeF]-OMe), which “LD50 Vero Cells” value is on record?
**A.** 24.7 µM

**Q.** For `C#CCCCCCC(=O)N(C)[C@H](C(=O)N(C)[C@H](C(=O)N(C)[C@H](C(=O)N(C)[C@@H](C)C(=O)N(C)[C@@H](Cc1ccccc1)C(=O)OC)C(C)C)C(C)C)C(C)C` [Compound 20] ({Oct(7)ynoyl}-[NMeV][NMeV][NMeV][NMeA][NMeF]-OMe), which “LD50 Vero Cells” value [1] is on record?
**A.** 27.0 µM

**Q.** With `C=CCCCCCC(=O)N(C)[C@H](C(=O)N(C)[C@H](C(=O)N(C)[C@H](C(=O)N(C)[C@@H](C)C(=O)N(C)[C@@H](Cc1ccccc1)C(=O)OC)C(C)C)C(C)C)C(C)C` [Compound 21] ({Oct(7)enoyl}-[NMeV][NMeV][NMeV][NMeA][NMeF]-OMe) as the compound, how does the “LD50 Vero Cells” value read?
**A.** 18.8 µM
